Measurements taken from publication PMC9240326, “BacPROTACs mediate targeted protein degradation in bacteria” (Cell, 2022).
Where a SMILES comes first, the peptide text is derived from it. [ ]: non-standard residue; d: D form. Phe(βR-OMe) = CO[C@H](c1ccccc1)[C@H](N)C(=O)O; NMeL = CN[C@@H](CC(C)C)C(=O)O; NMeK = CN[C@@H](CCCCN)C(=O)O

Key:
ClpC1NTD = ClpC1NTD (Mycolicibacterium smegmatis, UniProt A0R574); assay: biochemical; assay type: binding, Mycobacterium smegmatis
BRDTBD1 = BRDTBD1 (Homo sapiens, UniProt Q58F21); assay: Wes analysis of BRDTBD1 levels in M. smegmatis; assay type: cell-based; conditions: 30 min of incubation, relative to DMSO
[1] = Solubility in aqueous solutions (remark in ITC method); assay type: physicochemical
[2] = target: B. subtilis ClpCP protease (Bacillus subtilis, UniProt P37571); assay type: biochemical
B. subtilis ClpCP protease, sequence (P80244 whole entry): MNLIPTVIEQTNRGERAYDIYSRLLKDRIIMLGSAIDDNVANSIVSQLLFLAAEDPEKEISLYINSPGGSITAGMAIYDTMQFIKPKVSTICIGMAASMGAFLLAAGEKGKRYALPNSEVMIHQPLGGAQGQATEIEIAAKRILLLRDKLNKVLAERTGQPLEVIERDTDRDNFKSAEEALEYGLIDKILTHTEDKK
B. subtilis ClpCP protease, sequence (P37571 whole entry): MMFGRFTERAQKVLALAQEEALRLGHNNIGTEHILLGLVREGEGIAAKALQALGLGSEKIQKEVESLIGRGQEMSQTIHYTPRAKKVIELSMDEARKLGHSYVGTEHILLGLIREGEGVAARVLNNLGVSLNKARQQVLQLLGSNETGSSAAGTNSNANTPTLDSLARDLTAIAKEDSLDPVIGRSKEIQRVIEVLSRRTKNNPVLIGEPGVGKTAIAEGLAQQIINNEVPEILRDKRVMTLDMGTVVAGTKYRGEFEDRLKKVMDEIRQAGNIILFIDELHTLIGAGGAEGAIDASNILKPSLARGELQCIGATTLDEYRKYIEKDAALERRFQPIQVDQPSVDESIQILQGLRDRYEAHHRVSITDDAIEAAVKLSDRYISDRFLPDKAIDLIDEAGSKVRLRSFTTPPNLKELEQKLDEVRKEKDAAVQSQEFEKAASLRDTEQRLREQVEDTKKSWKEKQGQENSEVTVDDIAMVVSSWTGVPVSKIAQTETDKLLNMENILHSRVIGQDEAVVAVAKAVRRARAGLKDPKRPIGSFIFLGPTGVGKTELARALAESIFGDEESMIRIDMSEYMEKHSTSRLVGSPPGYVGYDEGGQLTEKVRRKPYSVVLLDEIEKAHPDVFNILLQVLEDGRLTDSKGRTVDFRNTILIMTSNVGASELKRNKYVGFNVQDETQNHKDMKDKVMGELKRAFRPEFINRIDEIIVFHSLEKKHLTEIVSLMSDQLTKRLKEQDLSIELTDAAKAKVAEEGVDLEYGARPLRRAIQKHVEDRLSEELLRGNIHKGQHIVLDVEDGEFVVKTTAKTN

ClpC1NTD, sequence (A0R574 1-148 limits assumed): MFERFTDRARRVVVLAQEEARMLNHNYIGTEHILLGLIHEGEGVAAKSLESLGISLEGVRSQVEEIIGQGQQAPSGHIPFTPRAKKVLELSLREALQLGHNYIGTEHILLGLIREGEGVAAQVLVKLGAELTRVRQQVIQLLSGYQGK

Row | SMILES | Kd (ClpC1NTD) [nM] | BRDTBD1 levels in M. smegmatis (Wes) (BRDTBD1) | Solubility in aqueous solutions [1] | mSA-Kre degradation by ClpCP, BacPROTAC-1 analogs [2]
1 | CC[C@H](C)[C@@H]1NC(=O)[C@H](CC(C)C)N(C)C(=O)[C@H](C(C)C)NC(=O)[C@H]([C@H](OC)c2ccccc2)NC(=O)[C@H](C)NC(=O)[C@H](CCCCN)N(C)C(=O)[C@H](Cc2c[nH]c3ccccc23)NC1=O [sCym-1] (cyclo(W[NMeK]A[Phe(βR-OMe)]V[NMeL]I)) | 810 | did not significantly alter BRDTBD1 levels | low solubility | 
2 | CC(=O)NC(CCCNC(=N)N)C(=O)NCCOCCOCCC(=O)NCCOCCOCCC(=O)NCCOCCOCCC(=O)NC(CCCCNC(=O)CCCCC1SCC2NC(=O)NC21)C(N)=O (stereo not shown) [BacPROTAC-1c] |  |  |  | did not induce substrate degradation
